Laboratory results reported in ChEMBL document CHEMBL1138378, “Halogenation of 4-hydroxy-3-methoxybenzyl thiourea TRPV1 agonists showed enhanced antagonism to capsaicin” (Bioorg Med Chem Lett, 2007).

Experiments:
[1] = target: T1, Transient receptor potential cation channel subfamily V member 1 (Rattus norvegicus, UniProt O35433); assay: Displacement of [3H]RTX from rat TRPV1 expressed in CHO cells; assay type: cell-based
[2] = target: T1, Transient receptor potential cation channel subfamily V member 1; assay: (§1) Antagonist activity at rat TRPV1 expressed in CHO cells assessed as inhibition of calcium uptake; assay type: functional, cell-based
[3] = target: Transient receptor potential cation channel subfamily V member 1 (Rattus norvegicus) (UniProt O35433); assay: as §1; assay type: functional, cell-based; parameters: concentration or dose not given beside the values; conditions: concentration not given here
[4] = target: Transient receptor potential cation channel subfamily V member 1 (Rattus norvegicus) (UniProt O35433); assay: Agonist activity at rat TRPV1 expressed in CHO cells assessed as maximal calcium uptake relative to capsaicin; assay type: functional, cell-based
[5] = target: T1, Transient receptor potential cation channel subfamily V member 1; assay: Agonist activity at rat TRPV1 expressed in CHO cells assessed as maximal calcium uptake; assay type: functional, cell-based

Sequence of Transient receptor potential cation channel subfamily V member 1 (Rattus norvegicus) (O35433 whole entry): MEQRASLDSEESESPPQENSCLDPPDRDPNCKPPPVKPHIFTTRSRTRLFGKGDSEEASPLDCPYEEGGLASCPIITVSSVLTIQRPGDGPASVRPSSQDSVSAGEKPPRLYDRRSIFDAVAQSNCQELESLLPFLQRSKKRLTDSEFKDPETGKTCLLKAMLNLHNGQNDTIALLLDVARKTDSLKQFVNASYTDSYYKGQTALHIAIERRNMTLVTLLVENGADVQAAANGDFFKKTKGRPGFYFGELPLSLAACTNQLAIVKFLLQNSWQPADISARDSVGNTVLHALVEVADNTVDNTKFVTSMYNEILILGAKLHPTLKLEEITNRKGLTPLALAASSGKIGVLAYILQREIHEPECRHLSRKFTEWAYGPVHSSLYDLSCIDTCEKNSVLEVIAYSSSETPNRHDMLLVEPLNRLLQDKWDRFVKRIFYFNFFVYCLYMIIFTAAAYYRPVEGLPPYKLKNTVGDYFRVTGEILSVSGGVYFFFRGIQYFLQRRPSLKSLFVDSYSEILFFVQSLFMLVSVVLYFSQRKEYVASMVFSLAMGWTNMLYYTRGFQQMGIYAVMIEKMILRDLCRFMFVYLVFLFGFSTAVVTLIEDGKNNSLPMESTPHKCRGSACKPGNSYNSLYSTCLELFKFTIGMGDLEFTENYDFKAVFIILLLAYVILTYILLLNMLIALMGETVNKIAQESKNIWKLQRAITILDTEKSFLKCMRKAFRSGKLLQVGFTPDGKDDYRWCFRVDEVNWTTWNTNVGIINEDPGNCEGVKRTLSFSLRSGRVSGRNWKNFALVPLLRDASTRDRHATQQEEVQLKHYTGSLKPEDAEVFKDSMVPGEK
T1 sequence (O35433 whole entry): as above

Row | SMILES | Ki [1] [nM] | Ki [2] [nM] | inhibition [3] [%] | Activity [4] [%] | EC50 [5] [nM]
1 | COc1cc(CNC(=S)NCc2ccc(C(C)(C)C)cc2)cc(Br)c1O | 51.6 | 49 | – | – | –
2 | COc1cc(CNC(=S)NCC(COC(=O)C(C)(C)C)Cc2ccc(C)c(C)c2)cc(Br)c1O (configuration not stated) | 33.1 | – | 70 | 29 | –
3 | COc1cc(CNC(=S)NC(COC(=O)C(C)(C)C)Cc2ccc(C(C)(C)C)cc2)c(I)cc1O (configuration not stated) | 96 | 310 | – | – | –
4 | COc1cc(CNC(=S)NCC(COC(=O)C(C)(C)C)Cc2ccc(C(C)(C)C)cc2)c(Cl)cc1O (configuration not stated) | 12.2 | – | 71 | 24 | –
5 | COc1cc(CNC(=S)NC(COC(=O)C(C)(C)C)Cc2ccc(C(C)(C)C)cc2)cc(Br)c1O (configuration not stated) | 38.2 | – | 29 | 57 | –
6 | COc1cc(CNC(=S)NCc2ccc(C(C)(C)C)cc2)cc(I)c1O | 342 | 176 | – | – | –
7 | COc1cc(CNC(=S)NC(CCc2ccc(C(C)(C)C)cc2)COC(=O)C(C)(C)C)cc(Cl)c1O (configuration not stated) | 122 | – | 47 | 44 | –
8 | COc1cc(CNC(=S)NCc2ccc(C(C)(C)C)cc2)ccc1O | 58.6 | – | – | – | 2.5
9 | COc1cc(CNC(=S)NCC(COC(=O)C(C)(C)C)Cc2ccc(C(C)(C)C)cc2)cc(Br)c1O (configuration not stated) | 18.8 | – | 85 | 9 | –
10 | COc1cc(CNC(=S)NC(CCc2ccc(C)c(C)c2)COC(=O)C(C)(C)C)cc(I)c1O (configuration not stated) | 127 | 115 | – | – | –
11 | COc1cc(CNC(=S)NC(CCc2ccc(C(C)(C)C)cc2)COC(=O)C(C)(C)C)cc(I)c1O (configuration not stated) | 214 | 525 | – | – | –
12 | COc1cc(CNC(=S)NCC(COC(=O)C(C)(C)C)Cc2ccc(C)c(C)c2)cc(I)c1O (configuration not stated) | 232 | 121 | – | – | –
13 | COc1cc(CNC(=S)NC(CCc2ccc(C(C)(C)C)cc2)COC(=O)C(C)(C)C)ccc1O (configuration not stated) | 36.5 | – | – | – | 21.5
14 | COc1cc(CNC(=S)NCC(COC(=O)C(C)(C)C)Cc2ccc(C(C)(C)C)cc2)c(Br)cc1O (configuration not stated) | 12.8 | 55 | – | – | –
15 | COc1cc(CNC(=S)NCC(COC(=O)C(C)(C)C)Cc2ccc(C)c(C)c2)cc(Cl)c1O (configuration not stated) | 30.9 | – | – | 93 | –
16 | COc1cc(CNC(=S)NC(CCc2ccc(C)c(C)c2)COC(=O)C(C)(C)C)c(I)cc1O (configuration not stated) | 140 | 176 | – | – | –
17 | COc1cc(CNC(=S)NC(COC(=O)C(C)(C)C)Cc2ccc(C(C)(C)C)cc2)c(Br)cc1O (configuration not stated) | 74.9 | – | 51 | 41 | –
18 | COc1cc(CNC(=S)NCC(COC(=O)C(C)(C)C)Cc2ccc(C(C)(C)C)cc2)cc(I)c1O (configuration not stated) | 45 | 103 | – | – | –
19 | COc1cc(CNC(=S)NC(CCc2ccc(C(C)(C)C)cc2)COC(=O)C(C)(C)C)c(I)cc1O (configuration not stated) | 79 | 69 | – | – | –
20 | COc1cc(CNC(=S)NCC(COC(=O)C(C)(C)C)Cc2ccc(C)c(C)c2)c(Cl)cc1O (configuration not stated) | 24.2 | – | 41 | 63 | –

Row | SMILES | Ki [1] [nM] | Ki [2] [nM] | inhibition [3] [%] | Activity [4] [%] | EC50 [5] [nM]
21 | COc1cc(CNC(=S)NCc2ccc(C(C)(C)C)cc2)cc(Cl)c1O | 76 | – | 92 | 5 | –
22 | COc1cc(CNC(=S)NC(CCc2ccc(C)c(C)c2)COC(=O)C(C)(C)C)c(Cl)cc1O (configuration not stated) | 103 | – | 45 | 60 | –
23 | COc1cc(CNC(=S)NCc2ccc(C(C)(C)C)cc2)c(Cl)cc1O | 36.9 | – | 81 | 33 | –
24 | COc1cc(CNC(=S)NC(COC(=O)C(C)(C)C)Cc2ccc(C(C)(C)C)cc2)c(Cl)cc1O (configuration not stated) | 41.5 | – | 11 | 94 | –
25 | COc1cc(CNC(=S)NC(CCc2ccc(C(C)(C)C)cc2)COC(=O)C(C)(C)C)cc(Br)c1O (configuration not stated) | 143 | – | 73 | 19 | –
26 | COc1cc(CNC(=S)NC(COC(=O)C(C)(C)C)Cc2ccc(C(C)(C)C)cc2)cc(Cl)c1O (configuration not stated) | 28.8 | – | – | – | 60
27 | COc1cc(CNC(=S)NCc2ccc(C(C)(C)C)cc2)c(I)cc1O | 130 | 156 | – | – | –
28 | COc1cc(CNC(=S)NC(CCc2ccc(C)c(C)c2)COC(=O)C(C)(C)C)c(Br)cc1O (configuration not stated) | 109 | – | 75 | 13 | –
29 | COc1cc(CNC(=S)NCc2ccc(C(C)(C)C)cc2)c(Br)cc1O | 42.1 | 30.3 | – | – | –
30 | COc1cc(CNC(=S)NCC(COC(=O)C(C)(C)C)Cc2ccc(C(C)(C)C)cc2)cc(Cl)c1O (configuration not stated) | 21.3 | – | 37 | 49 | –
31 | CCCCCCCCC(=O)NCc1cc(OC)c(O)cc1I | 1320 | 127 | – | – | –
32 | COc1cc(CNC(=S)NCC(COC(=O)C(C)(C)C)Cc2ccc(C)c(C)c2)c(Br)cc1O (configuration not stated) | 19.9 | – | 91 | 13 | –
33 | COc1cc(CNC(=S)NC(CCc2ccc(C)c(C)c2)COC(=O)C(C)(C)C)cc(Br)c1O (configuration not stated) | 102 | – | 59 | 50 | –
34 | COc1cc(CNC(=S)NC(CCc2ccc(C(C)(C)C)cc2)COC(=O)C(C)(C)C)c(Cl)cc1O (configuration not stated) | 79 | 72.2 | – | – | –
35 | COc1cc(CNC(=S)NC(CCc2ccc(C(C)(C)C)cc2)COC(=O)C(C)(C)C)c(Br)cc1O (configuration not stated) | 75 | 76.1 | – | – | –
36 | COc1cc(CNC(=S)NCC(COC(=O)C(C)(C)C)Cc2ccc(C)c(C)c2)c(I)cc1O (configuration not stated) | 18.9 | 23.1 | – | – | –
37 | COc1cc(CNC(=S)NC(CCc2ccc(C)c(C)c2)COC(=O)C(C)(C)C)ccc1O (configuration not stated) | 56 | – | – | – | 14.7
38 | COc1cc(CNC(=S)NC(CCc2ccc(C)c(C)c2)COC(=O)C(C)(C)C)cc(Cl)c1O (configuration not stated) | 86 | – | 16 | 88 | –
39 | COc1cc(CNC(=S)NC(COC(=O)C(C)(C)C)Cc2ccc(C(C)(C)C)cc2)cc(I)c1O (configuration not stated) | 39.4 | 178 | – | – | –
40 | COc1cc(CNC(=S)NCC(COC(=O)C(C)(C)C)Cc2ccc(C(C)(C)C)cc2)c(I)cc1O (configuration not stated) | 13.3 | 71 | – | – | –
